{"source": "patent US20030161893A1", "about": "“PTPase inhibitors and methods of using the same” (priority 2001, published 2003)", "format_in_all_cases": "cell-based, human", "key": {"[1]": {"test_system": "Stat1", "test": "IFN-alpha-induced Stat1 tyrosine phosphorylation, DR cells", "method": "(§1) For induction of Stat1 tyrosine phosphorylation by IFN-alpha in the absence or presence of sodium stibogluconate, cells grown in 10% FCS RPMI 1640 medium at 37° C. were stimulated with IFN-alpha (50 u/ml) for various time points and treated with or without sodium stibogluconate for 5 minutes prior to termination by lysing the cells in cold lysis buffer (1% NP-40; 50 mM Tris, pH 7.4; 100 mM NaCl; 1 mM EDTA, 10% glycerol, 10 mM sodium molybdic acid and 4 mM AEBSF).\n(§2) Cell lysates were prepared by lysing cells in cold lysis buffer for 30 min and cleared by centrifuging at 14,000 rpm at 4° C. for 15 min. For SDS-PAGE, cell lysates were mixed with equal volume of 2×SDS-PAGE sample buffer, heated at 90° C. for 5 min and separated in 10% SDS-PAGE gels. Cellular proteins in SDS-PAGE gels were transferred to nitrocellulose membrane (Schleicher & Schuell, Keene, N.H.), blocked in 5% milk, probed with antibodies and detected by using an enhanced chemiluminescence kit (ECL, Amersham, Arlington Heights, Ill.)."}, "[2]": {"test_system": "U266 cells", "test": "Cell proliferation assay (MTT), U266 multiple myeloma cells", "conditions": "day 6", "method": "(§3) For cell proliferation assays, cells were grown in 10% FCS culture medium containing various amounts of IFNs and/or sodium stibogluconate in 96 well plates and cultured at 37° C. for 3 or 6 days as indicated. The numbers of viable cells in proliferation assays were determined by MTT assays as described in Phatak et al., J. Immunol. 167, 3391 (2001)."}, "[3]": {"test_system": "Stat1", "test": "IFN-alpha-induced Stat1 tyrosine phosphorylation, WiT49-N1 cells", "method": "as §1, §2"}, "[4]": {"test_system": "Stat1", "test": "IFN-alpha-induced Stat1 tyrosine phosphorylation, WM9 cells", "conditions": "WM9, 5 hours post-stimulation", "method": "as §1, §2"}, "[5]": {"test_system": "PML/RAR-alpha chimeric protein", "test": "PML/RAR-alpha chimeric protein expression in NB4 cells"}, "[6]": {"test_system": "NB4 cells", "test": "NB4 cell growth (MTT), cell cycle and Annexin V", "method": "The NB4 cell line (Lanotte et al., Blood 77, 1080 (1991)) was a gift from Dr. Dan Lindner of the Cleveland Clinic Foundation. […] and U937 cell lines were purchased from American Type Culture Collection (Rockville, Md.). These human […] cell lines were maintained in RPMI 1640 medium supplemented with 10% fetal calf serum (FCS). For cell proliferation assays, cells were cultured at 37° C. in 10% FCS medium containing various amounts of sodium stibogluconate for 6 days. The cell numbers in the cultures were determined by an MTT assay as described previously in Mosmann, J. Imunol. Methods 65, 55 (1983).\nThe cell cycle was analyzed by flow cytometry after 3 days of culture of NB4 cells in the absence or presence of sodium stibogluconate (250 μg/ml) or ATRA (1 μM). Briefly, the cells were fixed in cold ethanol and incubated for 30 minutes at 4° C. in the dark with a solution of […] propidium iodide, 1 mg/ml RNase and 0.1% NP-40. Analysis was performed immediately after staining using the CELLFIT program (Becton Dickinson, Mountain View, Calif.).\nAnnexin V staining of exposed membrane phospholipid phosphatidylserine (PS) was done using the Annexin V assay kit (Pharmingen, San Diego, Calif.). Briefly, NB4 cells were cultured in the 10% FCS RPMI 1640 medium in the absence or presence of sodium stibogluconate (250 μg/ml) or ATRA (1 μM) for 3 days. Cells were then washed in PBS twice and stained in binding buffer (10 mM Hepes, pH 7.4; 140 mM NaCl; 2.5 mM CaCl2) containing Annexin V-FITC and propidium iodide for 15 min. The reaction was stopped by adding 10 volumes of binding buffer and analyzed by FACS (Becton Dickinson Facsvantage)."}, "[7]": {"test_system": "DU145 cells", "test": "Cell proliferation assay (MTT), DU145 prostate cancer cells", "method": "as §3\nNIH3T3 (Yi, et al., Blood 85, 87 (1995)), WM9 (Forsberg, et al., Proc. Nat. Acad Sci. USA 90, 393 (1993)), DU145 (Mickey, et al., Cancer Res. 37, 4049 (1977)), LoVo (Drewinko, et al., Cancer Res. 36, 467 (1976)), HEY (Buick, et al., Cancer Res. 45, 3668 (1985)), U251 (Yoshida, et al., Cancer 50, 410 (1982)), A549 (Giard, et al., J. Natl. Cancer Inst. 51, 1417 (1973)) and SK-N-SH (Helson, et al., Cancer Res. 35, 2594 (1975)) cell lines have been described and were cultured in RPMI 1640 supplemented with 10% fetal calf serum (FCS). For measurement of sodium stibogluconate effects on cell growth in vitro, cells were cultured in the absence (−) or presence (+) of various amounts of sodium stibogluconate for 6 days with viable cells quantified by MTT assays (Mosmann, J. Imunol. Methods 65, 55 (1983)). Percentages of growth inhibition by sodium stibogluconate were calculated (+/−×%)."}}, "data": [{"smiles": "O.O.O.O.O.O.O.O.O.O=C([O-])[C@@H]1[O][Sb]2([O-])([O][Sb]34([OH])[O][C@H]([C@H](O)CO)[C@H]([O]3)[C@H](C(=O)[O-])[O]4)[O][C@H]([C@H](O)CO)[C@@H]1[O]2.[Na+].[Na+].[Na+]", "note": "[sodium stibogluconate]", "values": [{"measurement": "IFN-alpha-induced Stat1 tyrosine phosphorylation versus control", "setting": "[1]; 10 μg/ml, 30 min post-stimulation", "value": "two folds greater than control"}, {"measurement": "Stat1 tyrosine phosphorylation by drug alone", "setting": "[1]; absence of IFN-alpha", "value": "failed to induce Stat1 tyrosine phosphorylation"}, {"measurement": "IFN-alpha-induced growth inhibition of U266 cells in presence of drug", "setting": "[2]", "value": "augmentation of IFN-alpha-induced cell growth inhibition"}, {"measurement": "growth inhibition of U266 cells by the drug by itself", "setting": "[2]", "value": "substantial growth inhibition activity"}, {"measurement": "IFN-alpha-induced Stat1 tyrosine phosphorylation", "setting": "[3]", "value": "failed to enhance"}, {"measurement": "IFN-alpha-induced Stat1 tyrosine phosphorylation", "setting": "[4]", "value": "Enhanced"}, {"measurement": "expression levels of PML/RAR-alpha chimeric protein", "setting": "[5]", "value": "no detectable effect"}, {"measurement": "Annexin V staining of NB4 cells", "setting": "[6]; 250 μg/ml, 6 days", "value": "stained positive by Annexin V"}, {"measurement": "proliferation of NB4 cells", "setting": "[6]; 12.5-400 μg/ml, MTT", "value": "markedly inhibited"}, {"measurement": "cell cycle of NB4 cells", "setting": "[6]; 3 days, sodium stibogluconate 250 μg/ml, ATRA 1 μM", "value": "significant increase of cells at S phase"}, {"measurement": "killing of DU145 cells, single agent", "setting": "[7]; 50 μg/ml and 100 μg/ml, day 6 culture", "value": "killed all cells"}, {"measurement": "cell killing, DU145", "setting": "[7]; 100 μg/ml, day 6", "value": "near-complete cell killing"}, {"measurement": "IFN-alpha-induced growth inhibition of DU145 in presence of drug", "setting": "[7]; day 6", "value": "augmented"}]}]}
